Laboratory results published in patent US10913720B2, “Benzyloxypyridylcyclopropanecarboxylic acids, pharmaceutical compositions and uses thereof” (Boehringer Ingelheim International GmbH, priority 2017, dated 2021).
pEC50: −log10 of the molar value. Values after ≈ are worked out from the molar mass of the structure shown. Read-outs that look alike come from different tables or passages of the source.

Experiments:
[1] = molecular target: human GPR40 receptor (Homo sapiens, UniProt O14842); assay: IP1 accumulation measurements using the IPOne assay system; format: cell-based; details: 1321N1 cells stably expressing human GPR40; 1 h stimulation at 37° C.
Chain of human GPR40 receptor (O14842 whole entry): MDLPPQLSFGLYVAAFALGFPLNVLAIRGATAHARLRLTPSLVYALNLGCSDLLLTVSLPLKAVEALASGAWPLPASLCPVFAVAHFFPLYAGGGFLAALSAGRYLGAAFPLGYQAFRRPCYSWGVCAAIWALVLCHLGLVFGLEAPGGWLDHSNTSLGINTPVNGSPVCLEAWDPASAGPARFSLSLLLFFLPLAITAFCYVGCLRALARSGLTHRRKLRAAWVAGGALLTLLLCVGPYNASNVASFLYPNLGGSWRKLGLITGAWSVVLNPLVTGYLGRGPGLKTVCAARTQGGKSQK
Procedure: IP1 accumulation measurements using the IPOne assay system—1321N1 cells stably expressing human GPR40 receptor (Euroscreen, Belgium) are seeded 24 h before the assay in white 384-well plates in culture medium containing 10% FCS, 1% Na-Pyruvate and 400 μg/mL G418. IP1 is assayed according to the manufacturer's description (Cisbio Bioassays, France). In brief, the assay is started by substitution of the culture medium by stimulation buffer (Hepes 10 mM, CaCl2) 1 mM, MgCl2 0.5 mM, KCl 4.2 mM, NaCl 146 mM, glucose 5.5 mM and LiCl 50 mM, pH 7.4). Cells are stimulated for 1 h at 37° C., 5% CO2 by addition of the compounds that are diluted in stimulation buffer containing LiCl. Assays are stopped by adding HTRF-conjugates (IP1-d2 and Anti-IP1 cryptate Tb) and lysis buffer, provided by the manufacturer. After an incubation time of 1 h at room temperature plates are measured using an EnVision™, Perkin Elmer. The obtained fluorescence ratios at 665/615 […] are then used to calculate the pEC50 values using Assay Explorer 3.3 Software (Accelrys, Inc.) by interpolation using an IP1 reference curve and subsequent sigmoidal curve fitting allowing for a variable hill slope.

[2] = Aqueous solubility (buffer vs acetonitrile/water, LC-UV); format: physicochemical; details: kinetic from dmso stock, 2.5% DMSO
Procedure: The aqueous solubility of the compounds of the invention is determined by comparing the amount dissolved in buffer to the amount in an acetonitrile/water (1/1) solution. Starting from a 10 mM DMSO stock solution aliquots are diluted with acetonitrile/water (1/1) or buffer, respectively. After 24 h of shaking, the solutions are filtrated and analyzed by LC-UV. The amount dissolved in buffer is compared to the amount in the acetonitrile solution.
Solubility is usually being measured from 0.001 to 0.125 mg/mL at a DMSO concentration of 2.5%. If more than 90% of the compound is dissolved in buffer, the value is marked with “>”.

[3] = pH 2.2, 24 h shaking, read-out: Solubility at pH 2.2
[4] = pH 6.8, 24 h shaking, read-out: Solubility at pH 6.8

Compound	pEC50 [1]	solubility at 24 h [2, 3]	solubility at 24 h [2, 4]
Cc1cc(-c2nnn(C)n2)cc(C)c1-c1cccc(COc2ccc([C@H]3C[C@@H]3C(=O)O)nc2)c1 [Example 1, (1S,2S)-2-{5-[2′,6′-Dimethyl-4′-(2-methyl-2H-tetrazol-5-yl)-biphenyl-3-ylmethoxy]-pyridin-2-yl}-cyclopropanecarboxylic Acid]	8.30	7 µg/mL (≈ 15.4 µM)	19 µg/mL (≈ 41.7 µM)
Cc1cc(OCCC(C)(C)O)cc(C)c1-c1cccc(COc2ccc([C@H]3C[C@@H]3C(=O)O)nc2)c1 [Example 3, (1S,2S)-2-{5-[4′-(3-Hydroxy-3-methyl-butoxy)-2′,6′-dimethyl-biphenyl-3-ylmethoxy]-pyridin-2-yl}-cyclopropanecarboxylic Acid]	7.72	24 µg/mL (≈ 50.5 µM)	40 µg/mL (≈ 84.1 µM)
Cc1cc(OCCC(C)(C)O)cc(C)c1-c1ccc(F)c2c1CC[C@H]2Oc1ccc([C@H]2C[C@@H]2C(=O)O)cc1 [Example 17 in WO 2013/178575, reference compound]		< 1 µg/mL	< 1 µg/mL
Cc1cc(-c2nnn(C)n2)cc(C)c1-c1ccc(F)c2c1CC[C@H]2Oc1ccc([C@H]2C[C@@H]2C(=O)O)cc1 [Example 45 in WO 2013/178575, reference compound]		< 1 µg/mL	< 1 µg/mL
